Values quoted from earlier work in US20240109913A1, “NEW SPIRO[3H-INDOLE-3,2'-PYRROLIDIN]-2(1H)-ONE COMPOUNDS AND DERIVATIVES AS MDM2-P53 INHIBITORS” (Boehringer Ingelheim International GmbH, priority 2014, published 2024).

Key:
[1] = system: human acute myeloid leukemia (AML) and human prostate tumor xenograft models harboring p53 wild-type; conditions: p53 wild-type (Tovar et al. 2013)
[2] = system: p53 wild-type vs. p53 mutant cell lines; conditions: in vitro (Carol et al. 2013)
[3] = system: solid tumor xenograft models; conditions: solid tumor xenograft models (Carol et al. 2013)
[4] = system: acute lymphoblastic leukemia (ALL) xenograft models with mixed-lineage leukemia (MLL) rearrangement; conditions: ALL xenograft models with MLL rearrangement (Carol et al. 2013)

Row | SMILES | antiproliferative and proapoptotic activity [1] | cytotoxic activity, median IC50 [2] | tumor growth inhibition [3] | efficacy in ALL xenograft models [4]
1 | CCOc1cc(C(C)(C)C)ccc1C1=N[C@@](C)(c2ccc(Cl)cc2)[C@@](C)(c2ccc(Cl)cc2)N1C(=O)N1CCN(CCCS(C)(=O)=O)CC1 [RG7112] | antiproliferative and proapoptotic activity of RG7112 has been observed | – | – | –
2 | CCOc1cc(C(C)(C)C)ccc1C1=N[C@@](C)(c2ccc(Cl)cc2)[C@@](C)(c2ccc(Cl)cc2)N1C(=O)N1CCN(CCCS(C)(=O)=O)CC1 [RG-7112] | – | lower median IC50 values for p53 wild-type vs. p53 mutant cell lines | induced tumor growth inhibition | particularly efficacious
